For 53 compounds, IC50 results are on record in BindingDB's records for doi:10.7270/Q2QF8R8B (Pcmd, 2008).

The IC50 is the concentration at which inhibition is half-maximal. High values mean weaker potency, low ones greater potency.

The target in this test is T1, Cathepsin G (Homo sapiens, UniProt P08311).
T1 sequence (P08311 whole entry): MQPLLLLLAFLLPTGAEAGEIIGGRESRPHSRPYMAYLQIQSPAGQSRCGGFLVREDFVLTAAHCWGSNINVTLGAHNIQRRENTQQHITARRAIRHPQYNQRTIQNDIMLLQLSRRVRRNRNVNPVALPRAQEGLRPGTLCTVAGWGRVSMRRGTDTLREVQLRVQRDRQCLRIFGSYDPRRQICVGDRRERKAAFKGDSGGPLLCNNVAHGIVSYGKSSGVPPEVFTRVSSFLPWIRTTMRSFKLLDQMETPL
The test is described as follows: IC50 of CTSG protease blockers – biochemical, confirmation, dose response (AID 832).

Consider `COc1cc2nc(-c3cccs3)oc(=O)c2cc1OC` [6,7-dimethoxy-2-(2-thienyl)-3,1-benzoxazin-4-one], for which the half-inhibitory concentration (IC50) was > 50 µM.
For `COCC(C)NC(=O)c1noc2c1CCc1cc(OC)ccc1-2` (stereo not drawn) [7-methoxy-N-(1-methoxypropan-2-yl)-4,5-dihydrobenzo[g][1,2]benzoxazole-3-carboxamide] the value was 6.4 µM; for `COCCNC(=O)c1noc2c1CCc1cc(OC)ccc1-2` [7-methoxy-N-(2-methoxyethyl)-4,5-dihydrobenz[g]indoxazene-3-carboxamide], 4.36 µM.
Take `COc1ccc2c(c1)CCc1c(C(=O)NCCN3CCOCC3)noc1-2` [7-methoxy-N-(2-morpholin-4-ylethyl)-4,5-dihydrobenzo[g][1,2]benzoxazole-3-carboxamide]: the IC50 is 5.82 µM.
Then `COc1ccc2c(c1)CCc1c(C(=O)NCc3cccnc3)noc1-2` [7-methoxy-N-(3-pyridinylmethyl)-4,5-dihydrobenzo[g][1,2]benzoxazole-3-carboxamide], with 1.39 µM; and `COc1ccc2c(c1)CCc1c(C(=O)Nc3ccn(Cc4ccc(C)cc4)n3)noc1-2` [7-methoxy-N-[1-(4-methylbenzyl)-1H-pyrazol-3-yl]-4,5-dihydronaphtho[2,1-d]isoxazole-3-carboxamide], with 2.91 µM.
Then `COc1ccc(C(=O)n2nc(-c3ccco3)nc2SC)cc1OC` [(3,4-dimethoxyphenyl)-[3-(2-furanyl)-5-(methylthio)-1,2,4-triazol-1-yl]methanone], with 22 µM; and `Nc1nncn1C(=O)c1cccs1` [(3-Amino-[1,2,4]triazol-4-yl)-thiophen-2-yl-methanone], with 28.4 µM; and `COc1ccc(C(=O)n2cnc(N)n2)cc1` [(3-amino-1,2,4-triazol-1-yl)-(4-methoxyphenyl)methanone], with 1.31 µM.
For `COc1ccc(C(=O)n2ccc(C)n2)cc1Br` [(3-bromanyl-4-methoxy-phenyl)-(3-methylpyrazol-1-yl)methanone] the value was 41.5 µM; for `Nc1nc(C(=O)N2CCOCC2)nn1C(=O)c1ccc(Cl)cc1` [(5-azanyl-3-morpholin-4-ylcarbonyl-1,2,4-triazol-1-yl)-(4-chlorophenyl)methanone], 4.51 µM; for `COc1ccc(S(=O)(=O)n2nc(OC(=O)c3ccccc3)cc2N)cc1` [Benzoic acid 5-amino-1-(4-methoxy-benzenesulfonyl)-1H-pyrazol-3-yl ester], 20.8 µM.
Regarding `CCOC(=O)c1ccc(/N=C/c2nc(-c3ccccc3)oc2OC(C)=O)cc1` [MLS000027596], the IC50 amounted to 21.6 µM.
Then `O=C1CS/C(=N\c2ccc(O)cc2)N1c1ccc(O)cc1` [MLS000027731], with > 50 µM; and `CC[C@@H](C)[C@H](NC(=O)OC(C)(C)C)c1nnc(S(=O)(=O)Cc2cc(C)ccc2C)o1` [MLS000042033], with 20.2 µM; and `Cc1ccc(NC(=O)Cc2nn(C)c(=O)c3ccccc23)cc1F` [MLS000047015], with > 50 µM.
Turning to `CC(=O)Nc1cccc(-c2nc3ccccc3c(=O)o2)c1` [MLS000061720], inhibition was half-maximal at 2.17 µM (IC50).
`O=C(c1csc2ccccc12)n1cccn1` [MLS000065687] registered an IC50 of 4.33 µM.
Then `COc1ccc(-c2cc(C(=O)Nc3c(C)nn(Cc4ccccc4Cl)c3C)no2)cc1` [MLS000087058], with 44.4 µM; and `COc1ccccc1-c1cc(C(=O)NCc2ccc(Cl)cc2)no1` [MLS000087096], with 11.1 µM; and `COc1ccc(-c2cc(C(=O)NCc3ccc(Cl)cc3)no2)cc1OC` [MLS000087122], with 43.2 µM.
Then `O=C(NCCc1ccccc1)c1noc2c1CCc1ccccc1-2` [MLS000087424], with 2.48 µM; and `O=C(NCCN1CCOCC1)c1noc2c1CCc1ccccc1-2` [MLS000087427], with 5.32 µM.
Then `COc1ccc2c(c1)CCc1c(C(=O)NCc3ccco3)noc1-2` [MLS000087436], with 1.58 µM; and `COc1ccc2c(c1)CCc1c(C(=O)NC3CCCCC3)noc1-2` [MLS000087437], with 0.631 µM; and `COc1ccc2c(c1)CCc1c(C(=O)NCCCn3ccnc3)noc1-2` [MLS000087439], with 4.13 µM.
Compound `COc1ccc2c(c1)CCc1c(C(=O)Nc3ccc(OC)c(OC)c3)noc1-2` [MLS000087452] returned a concentration for half-maximal inhibition (IC50) of 14.5 µM.
`COc1ccc2c(c1)CCc1c(C(=O)Nc3c(C)n(C)n(-c4ccccc4)c3=O)noc1-2` [MLS000087455] registered an IC50 of 4.64 µM.
For `COc1ccc2c(c1)CCc1c(C(=O)Nc3cc(C)n(Cc4ccc(Cl)cc4)n3)noc1-2` [MLS000087458] the value was 1.47 µM.
For `O=c1[nH]c(CN2CCc3ccccc3C2)nc2ccccc12` [MLS000088906] the value was > 50 µM; for `CCC(=O)Nc1cccc(-c2nc3ccccc3c(=O)o2)c1` [MLS000090237], 3.43 µM.
Then `COc1cc(NC(=O)c2csc3c2CCCC3)ncn1` [MLS000093387], with > 50 µM; and `COc1ccc(C(=O)n2nc(-c3ccccc3)nc2N)cc1OC` [MLS000099650], with 4.43 µM; and `O=C1CCCC(=O)C1=CNCCc1ccccc1` [MLS000108318], with > 50 µM.
As for `CCCNC(=O)c1noc2c1CCc1ccccc1-2` [MLS000116420], the IC50 turned out to be 2.55 µM.
For `Cc1cc(NC(=O)c2noc3c2CCc2ccccc2-3)no1` [MLS000116422] the value was 4.25 µM; for `Cc1cc(NC(=O)c2noc3c2CCc2ccccc2-3)n(-c2ccccc2)n1` [MLS000116423], > 50 µM; for `Cc1ccccc1Cn1nc(C)c(NC(=O)c2noc3c2CCc2ccccc2-3)c1C` [MLS000116424], 6.45 µM.
For `COc1ccc2c(c1)CCc1c(C(=O)NCc3ccc(F)cc3)noc1-2` [MLS000116425] the value was 2.52 µM; for `O=C(NCCCn1ccnc1)c1noc2c1CCc1ccccc1-2` [N-[3-(1-imidazolyl)propyl]-4,5-dihydrobenzo[g][1,2]benzoxazole-3-carboxamide], 3.73 µM; for `CCCC(=O)Nc1ccc(C(=O)n2nnc3ccccc32)cc1` [N-[4-(1H-1,2,3-benzotriazol-1-ylcarbonyl)phenyl]butanamide], 0.923 µM.
For `Nc1cc(OC(=O)c2cccs2)nn1S(=O)(=O)c1ccccc1` [SMR000021562] the value was 3.26 µM; for `COc1ccccc1/N=C/c1nc(-c2ccccc2)oc1OC(C)=O` [SMR000039734], 37.9 µM; for `CC(C)[C@H](NC(=O)OC(C)(C)C)c1nnc(S(=O)(=O)Cc2c(F)cccc2Cl)o1` [SMR000044502], 9.38 µM.
With `Cc1ccccc1CS(=O)(=O)c1nnc([C@H](CC(C)C)NC(=O)OC(C)(C)C)o1` [SMR000044673], the half-inhibitory concentration (IC50) is 22.6 µM.
As to `CC(C)(C)OC(=O)N[C@@H](Cc1ccccc1)c1nnc(S(=O)(=O)Cc2ccccc2)o1` [SMR000047857], it took 1.95 µM to reach half-maximal inhibition (IC50).
Then `COc1ccccc1-c1c(C#N)c(SCC(=O)N2CCCC2)nc(C)c1C(N)=O` [SMR000061200], with > 50 µM.
For `Cc1nn(C(=O)c2ccccc2)c2c1C(=O)CC(C)(C)C2` [SMR000069174] the value was 10.8 µM; for `COc1ccc(C(=O)n2nc(-c3ccc(Cl)cc3)nc2N)cc1OC` [SMR000074176], 32.2 µM; for `Cc1cc(OC(=O)c2ccccc2)n(CCC#N)n1` [[2-(2-cyanoethyl)-5-methyl-pyrazol-3-yl] benzoate], 2.26 µM.
For `CSc1nc(-c2ccco2)nn1C(=O)c1ccc(C)cc1` [[3-(furan-2-yl)-5-methylsulfanyl-1,2,4-triazol-1-yl]-(4-methylphenyl)methanone] the value was 1.02 µM; for `CSc1nc(-c2ccco2)nn1C(=O)c1cccs1` [[3-(furan-2-yl)-5-methylsulfanyl-1,2,4-triazol-1-yl]-thiophen-2-ylmethanone], 1.78 µM; for `CC(C)(C)OC(=O)N[C@@H](Cc1ccccc1)c1nnc(S(=O)(=O)Cc2cccc(F)c2)o1` [tert-butyl N-[(1S)-1-[5-[(3-fluorophenyl)methylsulfonyl]-1,3,4-oxadiazol-2-yl]-2-phenylethyl]carbamate], 2.67 µM.
